38 compounds from ChEMBL document CHEMBL1132119, “1-Arylnaphthalene lignan: a novel scaffold for type 5 phosphodiesterase inhibitor” (J Med Chem, 1999) can be followed below.

The target of assay [1] is Phosphodiesterase 3 (Canis familiaris). Kind of assay: Inhibitory activity against phosphodiesterase 3 (PDE 3) isolated from cardiac ventricle.
The target of assay [2] is cGMP-specific 3',5'-cyclic phosphodiesterase (Canis lupus familiaris, UniProt O77746). Kind of assay: Inhibitory activity against phosphodiesterase 5 (PDE V), isolated from lung.
In assay [3] the target is Phosphodiesterase 1 (Canis familiaris). In words: Inhibitory activity against phosphodiesterase 1 (PDE I), isolated from cardiac ventricle.
A further assay is filed under the species Rattus norvegicus. In words: Relaxant effect on rat aortic rings. The format is functional, organism-based. Particulars: Aorta.
The target of assay [4] is Phosphodiesterase 2 (Canis familiaris). In words: Inhibition of canine adrenal gland Phosphodiesterase 2.
Assay [5] concerns the target Phosphodiesterase 4 (Canis familiaris). Kind of assay: Inhibition of canine lung Phosphodiesterase 4.

A word on the IC50: it is the concentration needed to halve the response being measured. High values mean lower potency, low ones higher potency. For orientation: EC50 means the concentration at which the effect is half-maximal.

In the case of `COC(=O)c1c(CN2CCN(CCO)CC2)cc2cc(OC)c(OC)cc2c1-c1cc(OC)c(OC)c(OC)c1`, the IC50 in assay [1] is above 100 µM; in assay [2] it was 2.4 µM; in assay [3], 26 µM.
Take `CCOc1cc2cc(C(=O)N3CCN(CCO)CC3)c(C(=O)OC)c(-c3cc(Br)c(OC)c(OC)c3)c2cc1OC`: the IC50 in assay [2] came out at 0.017 µM. Moreover, in the assay filed under Rattus norvegicus, a half-maximal response (EC50) required 0.3 µM.
`COC(=O)c1c(C(=O)N2CCN(CCO)CC2)cc2cc(OC)c(OC)cc2c1-c1cc(Cl)c(OC)c(OC)c1`: the IC50 in assay [4] is above 100 µM; in assay [1], above 100 µM; in assay [5], above 100 µM; in assay [2], 0.049 µM; in assay [3], 26 µM. This compound gave an EC50 in the assay filed under Rattus norvegicus of 1.3 µM.
`COC(=O)c1c(C(=O)N2CCN(CCO)CC2)cc2cc(OC)c(OC)cc2c1-c1cc(Cl)cc(Cl)c1`: the IC50 in assay [1] was above 100 µM; in assay [2] it was 54 µM; in assay [3] it was above 100 µM.
Turning to `COc1cc2cc(CO)c(CO)c(-c3cc(OC)c(OC)c(OC)c3)c2cc1OC`, the values for the IC50 in assay [1], in assay [2] and in assay [3] were 0.88 µM, 13 µM and 18 µM, respectively.
For the compound `COC(=O)c1cc2cc(OC)c(OC)cc2c(-c2cc(OC)c(OC)c(OC)c2)c1C(=O)OC`, the 50% inhibitory concentration (IC50) in assay [1] is above 100 µM; in assay [2], 2.1 µM; in assay [3], above 100 µM.
As to `COC(=O)c1c(C(=O)N2CCCC2)cc2cc(OC)c(OC)cc2c1-c1cc(OC)c(OC)c(OC)c1`, the midpoint of inhibition in assay [2], the IC50, lay at 0.78 µM. That is a sub-micromolar value.
Consider `COC(=O)c1c(C(=O)N2CCN(CCO)CC2)cc2cc(OC)c(OC)cc2c1-c1cc(OC)c(OC)cc1C`, for which the 50% inhibitory concentration (IC50) in assay [2] turned out to be 52 µM.
In turn, `COC(=O)c1c(C(=O)N2CCN(CCO)CC2)cc2cc(OC)ccc2c1-c1cc(Br)c(OC)c(OC)c1` yielded a concentration for half-maximal inhibition (IC50) in assay [2] of 0.012 µM. Moreover, the concentration for a half-maximal effect (EC50) in the assay listed under Rattus norvegicus was determined as 0.56 µM.
For the compound `COC(=O)c1c(C(=O)N2CCCCC2)cc2cc(OC)c(OC)cc2c1-c1cc(OC)c(OC)c(OC)c1`, the 50% inhibitory concentration (IC50) in assay [2] came out at 2.1 µM.
Consider `O=C(O)C1CCN(c2nc(NCc3ccc4c(c3)OCO4)c3cc(Cl)ccc3n2)CC1`, for which inhibition in assay [2] was half-maximal at 0.0016 µM (IC50). For the same compound, in the assay filed under Rattus norvegicus, the concentration for a half-maximal effect (EC50) turned out to be 0.2 µM.
Take `COC(=O)c1c(C(=O)N2CCN(CCO)CC2)cc2cc(OC)c(OC)cc2c1-c1cc(OC)c(OC)c(OC)c1`: the IC50 is above 100 µM in assay [4]; above 100 µM in assay [1]; above 100 µM in assay [5]; 0.094 µM in assay [2]; 41 µM in assay [3]. In the assay filed under Rattus norvegicus, the EC50 turned out to be 2 µM.
`COC(=O)c1c(C(=O)N(C)C)cc2cc(OC)c(OC)cc2c1-c1cc(OC)c(OC)c(OC)c1`: the IC50 turned out to be 16 µM in assay [1], 0.23 µM in assay [2] and 35 µM in assay [3].
For the compound `COC(=O)c1c(C(=O)N2CCC(=O)CC2)cc2cc(OC)c(OC)cc2c1-c1cc(OC)c(OC)c(OC)c1`, the 50% inhibitory concentration (IC50) was above 100 µM in assay [1], 0.5 µM in assay [2] and 88 µM in assay [3].
On to `COC(=O)c1c(C(=O)N2CCN(CCO)CC2)cc2cc(OC)c(OC)cc2c1-c1cc(Br)c(OC)c(OC)c1`, for which the IC50 in assay [4] was above 100 µM; in assay [1], above 100 µM; in assay [5] it was above 100 µM; in assay [2], 0.024 µM; in assay [3] it was 11 µM. The EC50 in the assay listed under Rattus norvegicus is 0.46 µM.
`COC(=O)c1c(C(=O)N2CCN(CCO)CC2)cc2cc(OC)c(OC)c(OC)c2c1-c1cc(Br)c(OC)c(OC)c1`: the IC50 in assay [1], in assay [2] and in assay [3] was above 100 µM throughout.
As to `COc1cc2cc3c(c(-c4cc(OC)c(OC)c(OC)c4)c2cc1OC)COC3=O`, the IC50 in assay [1] worked out at 0.84 µM; in assay [2] it was 0.068 µM; in assay [3], 0.43 µM.
As to `COC(=O)c1c(C(=O)N2CCN(CCO)CC2)cc2ccccc2c1-c1cc(Br)c(OC)c(OC)c1`, the 50% inhibitory concentration (IC50) in assay [4] is above 100 µM; in assay [1], above 100 µM; in assay [5] it was above 100 µM; in assay [2], 0.025 µM; in assay [3], 3.4 µM. In the assay filed under Rattus norvegicus, this compound came in with a half-maximal effective concentration (EC50) of 0.79 µM.
For the compound `COC(=O)c1c(C(=O)N2CCN(CCO)CC2)cc2cc(OC)c(OC)cc2c1-c1ccc(Cl)c(Cl)c1`, the concentration for half-maximal inhibition (IC50) is above 100 µM in assay [1], 53 µM in assay [2] and 82 µM in assay [3].
Regarding `COC(=O)c1c(C(=O)N2CCN(CCO)CC2)cc2ccc(Cl)cc2c1-c1cc(Br)c(OC)c(OC)c1`, the IC50 in assay [1] is above 100 µM; in assay [2], 0.021 µM; in assay [3], 1.1 µM.
In the same order, the values of `COC(=O)c1c(C(N)=O)cc2cc(OC)c(OC)cc2c1-c1cc(OC)c(OC)c(OC)c1` are 0.32 µM, above 100 µM and 0.82 µM.
Take `COC(=O)c1c(C(=O)N2CCN(CCO)CC2)cc2cc(OC)c(OC)cc2c1-c1cccc([N+](=O)[O-])c1`: the IC50 in assay [1], in assay [2] and in assay [3] was above 100 µM throughout.
Take `COC(=O)c1c(C(=O)N2CCOCC2)cc2cc(OC)c(OC)cc2c1-c1cc(OC)c(OC)c(OC)c1`: 0.39 µM corresponded to half-maximal inhibition in assay [2] (IC50).
Consider `COC(=O)c1c(C(=O)N2CCC(CO)CC2)cc2cc(OC)c(OC)cc2c1-c1cc(OC)c(OC)c(OC)c1`, for which the concentration for half-maximal inhibition (IC50) in assay [1] is above 100 µM; in assay [2], 0.32 µM; in assay [3], 45 µM.
In the case of `CNC(=O)c1cc2cc(OC)c(OC)cc2c(-c2cc(OC)c(OC)c(OC)c2)c1C(=O)OC`, the concentration for half-maximal inhibition (IC50) is 2.9 µM in assay [1], above 100 µM in assay [2] and above 100 µM in assay [3].
Consider `COc1cc2cc(N)c(CO)c(-c3cc(OC)c(OC)c(OC)c3)c2cc1OC`, for which the 50% inhibitory concentration (IC50) worked out at 3.5 µM in assay [1], 13 µM in assay [2] and 2.1 µM in assay [3].
Compound `COC(=O)c1c(C(=O)N2CCN(CCO)CC2)cc2c(Cl)cccc2c1-c1cc(Br)c(OC)c(OC)c1` registered a 50% inhibitory concentration (IC50) in assay [2] of 0.0062 µM. Besides, in the assay filed under Rattus norvegicus, a half-maximal effect (EC50) was put at 0.1 µM.
`COC(=O)c1c(C(=O)N2CCN(CCO)CC2)cc2cc(OC)c(OC)cc2c1/C=C/c1cc(OC)c(OC)c(OC)c1` showed an IC50 in assay [2] above 100 µM.
Still for that read-out and setting: the same measure for `COC(=O)c1c(C(=O)N2CCN(CCO)CC2)cc2cc(OC)c(OC)cc2c1-c1ccnc(Br)c1`: above 100 µM.
With `COc1cc2cc(C(=O)N3CCN(CCO)CC3)c(CO)c(-c3cc(OC)c(OC)c(OC)c3)c2cc1OC`, the concentration for half-maximal inhibition (IC50) in assay [1], in assay [2] and in assay [3] was above 100 µM in each case.
For the compound `COC(=O)c1c(C(=O)N2CCN(CCO)CC2)cc2cc(OC)c(OC)cc2c1-c1cc(N)c(OC)c(OC)c1`, the IC50 in assay [1] was above 100 µM; in assay [2], 30 µM; in assay [3], above 100 µM.
For `COC(=O)c1c(C(=O)N2CCC(O)CC2)cc2cc(OC)c(OC)cc2c1-c1cc(OC)c(OC)c(OC)c1`, the figures for the IC50 in assay [1], in assay [2] and in assay [3] were above 100 µM, 0.17 µM and 74 µM, respectively.
Take `COc1cc2cc3c(c(-c4cc(OC)c(OC)c(OC)c4)c2cc1OC)C(=O)N(C)C3=O`: the concentration for half-maximal inhibition (IC50) in assay [1], in assay [2] and in assay [3] was above 100 µM throughout.
In the case of `COC(=O)c1c(C(=O)N2CCN(C)CC2)cc2cc(OC)c(OC)cc2c1-c1cc(OC)c(OC)c(OC)c1`, the half-inhibitory concentration (IC50) in assay [1] was above 100 µM; in assay [2], 1.4 µM; in assay [3], 69 µM.
In the same order, the values of `COC(=O)c1c(C(=O)N2CCN(CCO)CC2)cc2cc(OC)c(OC)cc2c1-c1ccc2c(c1)OCO2` are above 100 µM, 33 µM and 55 µM.
`CCOC(=O)C1CCN(C(=O)c2cc3cc(OC)c(OC)cc3c(-c3cc(OC)c(OC)c(OC)c3)c2C(=O)OC)CC1`: the half-maximal inhibitory concentration (IC50) was found to be 60 µM in assay [1], 2 µM in assay [2] and 24 µM in assay [3].
Taken in the same sequence, the figures for `COC(=O)c1c(C(=O)N2CCN(CCO)CC2)cc2ccc(C)cc2c1-c1cc(Br)c(OC)c(OC)c1` were above 100 µM, 0.051 µM and 3.5 µM.
In the same order, the values of `COC(=O)c1c(C(=O)N2CCN(CCO)CC2)cc2cc(OC)c(OC)cc2c1-c1cccs1` are above 100 µM, above 100 µM and 77 µM.
